Measurements published in patent publication US10441557B2, “Germicidal compositions comprising carboxylic acid mixture and use as topical disinfectants” (priority 2012, dated 2019).

Assay: Freeze-thaw stability of concentrates
Format: physicochemical
Protocol: In this example, concentrates according to the present invention were prepared comprising various surfactants and the effect of those surfactants on the freeze-thaw stability of the samples was determined. The concentrates were prepared for an intended dilution ratio of 1 part concentrate to 39 parts water. Each formulation tested comprised 9.2 wt. % formic acid, 9.4 wt. % lactic acid, 23.2 wt. % sodium α-olefin sulfonate (SAOS), and 21 wt. % of the indicated surfactant, with water comprising the balance.
The samples of each formulation were placed in bottles filled to 1.5 inches from the top of the bottles. The bottles containing the samples were placed in a freezer for one day, and removed from the freezer and thawed the subsequent day. The homogeneity of each sample upon thawing was noted. A formulation was considered acceptable if a homogeneous solution was observed upon thawing.

## Cocamidopropylbetaine
  Physical Stability After 1 Freeze-Thaw Cycle: Non-homogeneous
